Results: publication PMC3412620 (PLoS ONE, 2012)

Key:
[1] = target: T1, human pyridoxal kinase (hPL kinase) (Homo sapiens, UniProt O00764); assay: spectrophotometric kinetic assay (PL to PLP, […] nm); assay type: biochemical
T1 construct: gene PDXK; wild-type hPL kinase
T1 sequence (O00764 1-312): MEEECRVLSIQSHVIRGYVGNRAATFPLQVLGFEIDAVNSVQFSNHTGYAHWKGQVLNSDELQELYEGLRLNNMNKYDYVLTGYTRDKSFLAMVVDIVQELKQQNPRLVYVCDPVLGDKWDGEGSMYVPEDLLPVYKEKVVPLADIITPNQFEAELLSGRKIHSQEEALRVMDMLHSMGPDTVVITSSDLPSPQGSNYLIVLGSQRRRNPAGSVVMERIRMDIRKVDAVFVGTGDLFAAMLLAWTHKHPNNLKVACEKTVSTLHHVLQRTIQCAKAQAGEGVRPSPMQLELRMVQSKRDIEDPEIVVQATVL

[2] = target: T1, human pyridoxal kinase (hPL kinase); assay: crystal structure ([…] Å, ternary with ginkgotoxin); assay type: binding
[3] = target: T1, human pyridoxal kinase (hPL kinase); assay: crystal structure ([…] Å), […] occupancy; density broken between ring and phosphate; assay type: binding
[4] = target: T1, human pyridoxal kinase (hPL kinase); assay: percentage inhibition at […], spectrophotometric assay; assay type: biochemical
[5] = substrate: Cc1ncc(CO)c(C=O)c1O; assay: spectrophotometric steady-state kinetics with purified enzyme (Km); assay type: biochemical, Homo sapiens; settings: MgATP PL substrate site

Nc1nnc(-c2cccc(Cl)c2Cl)c(N)n1 [lamotrigine]
Ki [1]: 56 µM

Nc1ncnc2c1ncn2[C@@H]1O[C@H](COP(=O)(O)OP(=O)(O)OP(=O)(O)O)[C@@H](O)[C@H]1O [ATP]
crystal structure (2.15 Å, ternary with ginkgotoxin) [2]: We observed bound MgATP and ginkgotoxin (Fig. 4A–C) at both subunit active sites.

COCc1c(COP(=O)(O)O)cnc(C)c1O [GIP, ginkgotoxin phosphate]
crystal structure (2.15 Å), 40% occupancy; density broken between ring and phosp [3]: We also observed what appears to be the phosphorylated product of ginkgotoxin bound at the PL sites

CCCn1c(=O)[nH]c(=O)c2[nH]cnc21 [enprofylline]
Ki [1]: 228 µM

Cn1cnc2c1c(=O)[nH]c(=O)n2C [theobromine]
inhibition at 100 µM [4]: 22%

Cn1c(=O)c2c(ncn2C)n(C)c1=O [caffeine]
inhibition at 100 µM [4]: 21%

B1: human pyridoxal kinase (hPL kinase) (Homo sapiens) (protein)
chain: T1 sequence (O00764 1-312)
notes: wild-type hPL kinase
Km [5]: 58 µM
